Experimental data reported in patent US20240269085A1, “CO[…] COMPOUNDS AND PRODUCTION THEREOF” (Esolate Ltd, priority 2019, published 2024).

Assays:
Format in all cases: physicochemical
[1] = Visual solubility in simulated stomach conditions (0.155 M HCl with NaCl, 37° C.)
Protocol: Bioavailability of the cannabinoid ultrafine nanoparticles obtained as described in Example 4 was assessed by visually evaluating the solubility of the fine nanoparticles in simulated stomach conditions. 0.5 g of NaCl was added to a 0.155 M solution of HCl in water to replicate stomach acidic conditions. 10 mg of the fine nanoparticles, 10 mg of the isolates in crystalline form, and 10 mg of the distillates were each placed in vials containing 10 ml of the acidic solution and incubated for 10 hours at 37° C. At the end of the 10-hour period, only minimal solubility of the preparations was observed. Additional 10 ml of the acidic solution were added, and the mixtures were incubated for 10 more hours at 37° C. At the end of the 20-hour period, the cannabinoid nanoparticles dissolved in the acidic solution.

Solubility in water = assay: Solubility in water
[2] = Relative bioavailability test: HPLC-UV of CBD concentration in water; conditions: after 32 hours elapsed time
Protocol: Relative bioavailability tests of the cannabinoid ultrafine nanoparticles obtained as described in Example 4 (test samples) as compared to cannabinoid isolates in water (control samples) were performed using a high performance liquid chromatography (HPLC) separator equipped with a UV detector to determine the concentration of CBD in each sample. Control samples were prepared by filtering 1 ml of each sample through a 0.45 μm filter into a 2 ml HPLC vial and 1 ml of methanol (MeOH) was added to each sample vial. HPLC mobile phase was comprised of 65% acetonitrile and 35% water. A flow rate of 1 ml per minute led to the elution of CBD after approximately 4.5 minutes.
A percentage area was measured after 32 hours elapsed time, which represents the amount of CBD in each sample relative to the background signal created by the MeOH in each sample.

Compound: C=C(C)[C@@H]1CCC(C)=C[C@H]1c1c(O)cc(CCCCC)cc1O [CBD isolate, cannabidiol]
- solubility in acidic solution ([1]; 10 mg in 20 ml, 20 hours at 37° C.): complete insolubility
- solubility in acid (visual) ([1]; acidic solvent resembling stomach conditions): insoluble
- solubility in water (visual) (Solubility in water): insoluble
- percentage area (amount of CBD relative to MeOH background) [2]: 0.7706%
